Results as given in the supplement of paper PMC6045584.
± gives the standard deviation of the averaged measurements.

Columns and labels:
[1] = compound: Oc1nc(-c2ccc(C(F)(F)F)cc2)nc2c1CSCC2 [XAV-939]; experiment: surviving fraction relative to DMSO-only wells; higher = less growth inhibition; details: exposure time: 5 days
Summary of the method: (§1)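 Surviving fraction is CellTiter-Glo luminescence divided by the median of wells given DMSO only. For this, log-phase tumour cell lines went into 384-well plates at 250–500 cells per well and, 24 hours later, into five days of continuous inhibitor exposure at 0.5, 1, 5, 10, 50, 100, 500 and 1000 nM. Lines were screened three times and retained only if replicate Pearson r >0.7 and median Z' >0.3.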

[2] = compound: COc1cc2ncnc(Nc3ccc(F)c(Cl)c3)c2cc1NC(=O)/C=C/CN1CCCCC1; experiment: as above; details: exposure time: 5 days
Summary of the method: as §1

Test System | surviving fraction ([1]; 0.5 nM) | surviving fraction ([1]; 1 nM) | surviving fraction ([1]; 5 nM) | surviving fraction ([1]; 10 nM) | surviving fraction ([1]; 50 nM) | surviving fraction ([1]; 100 nM) | surviving fraction ([1]; 500 nM) | surviving fraction ([1]; 1000 nM) | surviving fraction ([2]; 0.5 nM) | surviving fraction ([2]; 1 nM) | surviving fraction ([2]; 5 nM) | surviving fraction ([2]; 10 nM) | surviving fraction ([2]; 50 nM) | surviving fraction ([2]; 100 nM) | surviving fraction ([2]; 500 nM) | surviving fraction ([2]; 1000 nM)
MDAMB436 BREAST | 0.957 ± 0.092 | 0.911 ± 0.088 | 0.923 ± 0.013 | 0.968 ± 0.079 | 0.959 ± 0.075 | 0.958 ± 0.081 | 0.856 ± 0.049 | 0.82 ± 0.011 | 0.922 ± 0.08 | 0.975 ± 0.077 | 0.895 ± 0.021 | 0.971 ± 0.17 | 0.996 ± 0.053 | 0.89 ± 0.11 | 0.771 ± 0.065 | 0.706 ± 0.085
MDAMB453 BREAST | 0.991 ± 0.053 | 1.02 ± 0.034 | 1.1 ± 0.088 | 1.08 ± 0.043 | 1.06 ± 0.04 | 1.12 ± 0.074 | 1.02 ± 0.069 | 0.961 ± 0.049 | 1.05 ± 0.021 | 1.04 ± 0.08 | 1.03 ± 0.1 | 1.09 ± 0.093 | 1.07 ± 0.044 | 0.887 ± 0.048 | 0.705 ± 0.033 | 0.509 ± 0.069
MDAMB468 BREAST | 1.08 ± 0.041 | 1.04 ± 0.061 | 1.04 ± 0.039 | 1.08 ± 0.038 | 1.09 ± 0.014 | 1.05 ± 0.033 | 0.988 ± 0.072 | 0.964 ± 0.043 | 0.997 ± 0.094 | 1.04 ± 0.033 | 0.8783 ± 0.0035 | 0.854 ± 0.063 | 0.626 ± 0.013 | 0.676 ± 0.035 | 0.438 ± 0.016 | 0.286 ± 0.014
MFM223 BREAST | 1.18 ± 0.037 | 1.11 ± 0.062 | 1.12 ± 0.023 | 1.112 ± 0.0058 | 0.913 ± 0.034 | 1.08 ± 0.043 | 0.891 ± 0.059 | 0.685 ± 0.033 | 1.094 ± 0.01 | 1.09 ± 0.042 | 1.14 ± 0.073 | 1.15 ± 0.072 | 1.2 ± 0.078 | 1.19 ± 0.06 | 0.914 ± 0.06 | 0.587 ± 0.055
MG63 BONE | 0.98 ± 0.028 | 1.03 ± 0.034 | 1.025 ± 0.0083 | 1.09 ± 0.018 | 0.947 ± 0.034 | 0.923 ± 0.03 | 0.7 ± 0.0078 | 0.723 ± 0.021 | 1.04 ± 0.072 | 1 ± 0.049 | 1.05 ± 0.033 | 1.06 ± 0.062 | 1.04 ± 0.056 | 1.03 ± 0.08 | 0.911 ± 0.039 | 0.89 ± 0.073
MHM BONE | 0.999 ± 0.011 | 1.02 ± 0.033 | 1.024 ± 0.009 | 1.03 ± 0.033 | 0.96 ± 0.081 | 1.04 ± 0.012 | 0.963 ± 0.005 | 0.949 ± 0.029 | 1.01 ± 0.044 | 0.998 ± 0.021 | 1.02 ± 0.025 | 0.998 ± 0.032 | 1.01 ± 0.011 | 1.03 ± 0.024 | 0.974 ± 0.011 | 0.926 ± 0.016
NCIH441 LUNG | 0.962 ± 0.096 | 1.07 ± 0.052 | 1.02 ± 0.064 | 1.07 ± 0.065 | 1.02 ± 0.077 | 1.06 ± 0.054 | 1.01 ± 0.045 | 0.918 ± 0.052 | 1.08 ± 0.13 | 1.04 ± 0.041 | 1.05 ± 0.073 | 1.06 ± 0.04 | 0.981 ± 0.038 | 0.859 ± 0.12 | 0.689 ± 0.051 | 0.5 ± 0.013
NOS1 BONE | 1.11 ± 0.086 | 1.06 ± 0.045 | 1.29 ± 0.26 | 1.14 ± 0.074 | 1.17 ± 0.083 | 1.06 ± 0.096 | 0.783 ± 0.1 | 0.778 ± 0.065 | 1.1 ± 0.045 | 1.15 ± 0.077 | 1.14 ± 0.051 | 1.17 ± 0.094 | 1.12 ± 0.16 | 0.968 ± 0.033 | 0.26 ± 0.011 | 0.135 ± 0.012
NY BONE | 0.927 ± 0.024 | 0.98 ± 0.037 | 0.997 ± 0.018 | 1.06 ± 0.036 | 1.03 ± 0.053 | 1.02 ± 0.041 | 0.936 ± 0.032 | 0.924 ± 0.029 | 0.99 ± 0.014 | 0.975 ± 0.032 | 1.05 ± 0.032 | 1.01 ± 0.071 | 1.04 ± 0.044 | 1 ± 0.051 | 0.756 ± 0.011 | 0.514 ± 0.01
OS25HAL BONE | 1.01 ± 0.026 | 1.04 ± 0.015 | 1.03 ± 0.014 | 0.965 ± 0.034 | 1.01 ± 0.013 | 1.03 ± 0.029 | 0.872 ± 0.06 | 0.893 ± 0.075 | 0.995 ± 0.013 | 0.972 ± 0.011 | 1.02 ± 0.032 | 0.981 ± 0.0017 | 1.05 ± 0.044 | 1.07 ± 0.015 | 1.012 ± 0.0087 | 0.964 ± 0.011
OSHN BONE | 1.02 ± 0.013 | 1.07 ± 0.047 | 1.07 ± 0.037 | 1.05 ± 0.038 | 1.05 ± 0.015 | 1.09 ± 0.031 | 1.07 ± 0.038 | 1.11 ± 0.035 | 1.07 ± 0.034 | 1.06 ± 0.044 | 1.08 ± 0.033 | 1.05 ± 0.035 | 1.1 ± 0.037 | 1.1 ± 0.027 | 1.06 ± 0.047 | 1.029 ± 0.0075
PCI30 HEADNECK | 1.01 ± 0.029 | 0.975 ± 0.064 | 1.07 ± 0.04 | 1.057 ± 0.0035 | 1.06 ± 0.036 | 1.15 ± 0.065 | 0.945 ± 0.13 | 0.8693 ± 0.008 | 0.985 ± 0.029 | 1.01 ± 0.087 | 0.649 ± 0.07 | 0.551 ± 0.078 | 0.393 ± 0.01 | 0.392 ± 0.013 | 0.194 ± 0.035 | 0.0737 ± 0.0085
RDES SOFT TISSUE | 1.24 ± 0.15 | 1.3 ± 0.16 | 1.29 ± 0.21 | 1.22 ± 0.2 | 1.21 ± 0.14 | 1.18 ± 0.27 | 1.11 ± 0.11 | 1.08 ± 0.16 | 1.27 ± 0.17 | 1.28 ± 0.086 | 1.28 ± 0.059 | 1.33 ± 0.18 | 1.28 ± 0.2 | 1.23 ± 0.13 | 1.23 ± 0.15 | 1.22 ± 0.1
S68 BREAST | 0.722 ± 0.22 | 0.763 ± 0.12 | 1.14 ± 0.25 | 0.983 ± 0.32 | 1.19 ± 0.13 | 1.12 ± 0.22 | 0.829 ± 0.05 | 0.767 ± 0.076 | 0.768 ± 0.15 | 1.01 ± 0.15 | 1.03 ± 0.27 | 0.764 ± 0.12 | 0.701 ± 0.085 | 0.667 ± 0.14 | 0.603 ± 0.033 | 0.256 ± 0.024
SAOS2 BONE | 1.16 ± 0.027 | 1.15 ± 0.041 | 1.21 ± 0.022 | 1.28 ± 0.05 | 1.26 ± 0.034 | 1.25 ± 0.051 | 1.14 ± 0.046 | 1.07 ± 0.072 | 1.17 ± 0.02 | 1.14 ± 0.017 | 1.14 ± 0.038 | 1.13 ± 0.07 | 1.1 ± 0.062 | 1.13 ± 0.064 | 0.762 ± 0.044 | 0.513 ± 0.028
SCC003 HEADNECK | 1.04 ± 0.11 | 1.07 ± 0.096 | 1.1 ± 0.052 | 1.08 ± 0.11 | 1.02 ± 0.025 | 1.07 ± 0.076 | 1.01 ± 0.12 | 1.05 ± 0.13 | 1.01 ± 0.031 | 0.95 ± 0.19 | 0.845 ± 0.11 | 0.861 ± 0.082 | 0.554 ± 0.072 | 0.535 ± 0.079 | 0.405 ± 0.053 | 0.356 ± 0.031
